Experiments:
[1] = test system: Ehrlich ascites carcinoma cells; assay: Antitumor activity against Ehrlich ascites carcinoma (increase in life span, survivors); type: in vivo, mouse (ICR mice); conditions: for 35 days survivals No./treated / ILS (increase in life span): Ehrlich; for ILS (increase in life span): Table 1, 35 days, control 15.14-15.43 days
Experimental: Antitumor activities against mouse leukemia P-388 carcinoma and Ehrlich ascites carcinoma are shown in the ensuing examples, according to the following list of specifications:
2. Animals: BDF1 mice or ICR mice, aged 5-6 weeks, male, 5 mice in a group and 7 control mice.
3. Tumor cells: P-388 leukemic cells; 1×10^6 /0.2 ml are inoculated intraperitoneally in BDF1 mice. Ehrlich ascites carcinoma cells; 2×10^6 /0.2 ml are inoculated intraperitoneally in ICR mice.
4. Preparation of samples and administration of drugs: Samples are suspended in Tris-HCl saline solution by sonication. 0.1 ml/10 g body weight is administered. Samples are stored at 4° C. in the dark.
Administration: starting two days after inoculation of tumor, once a day for 2-7 days.
5. Increase in life span (ILS) is calculated by the following equation: [formula] Experimental days: 35 days (partially 30 days) mice living in final days are not calculated in ILS.
Antitumor activity of this compound has been shown hereinbefore. Furthermore, over 60% ILS was observed when Ehrlich ascites carcinoma, 2×10^6 cells/0.2 ml was inoculated intraperitoneally in mice and 2 days thereafter this compound (30 mg/kg) was administered once a day for 7 days.

P-388 leukemic cells = assay: Antitumor activity against mouse P-388 leukemia (increase in life span, survivors); type: in vivo, mouse (BDF1 mice); conditions: for 35 days survivals No./treated / ILS (increase in life span): P-388; for ILS (increase in life span): Table 1, 35 days, control 7.57-7.79 days; for ILS at 15 mg/kg / ILS at 30 mg/kg: P388
mice = assay: Acute toxicity / mortality in mice; type: in vivo; conditions: for mortality: 150 mg/kg body weight in mice
[2] = Antiviral activity (statement, no method given); conditions: statement in words; virus and dose not stated
[3] = Mus musculus, Table 5, P-388 leukemia treatment, 30 mg (× 5) under head mg/kg

With `CCCCCCCCCCCCCCCC(=O)OC[C@H](COP(=O)(O)OC[C@H]1O[C@@H](n2cc(F)c(=O)[nH]c2=O)[C@H](O)[C@@H]1O)OC(=O)CCCCCCCCCCCCCCC` [Example 1] the “35 days survivals No./treated” value ([1]; 15 mg/kg (× 5)) was 2/5, the “ILS (increase in life span)” value ([1]; 15 mg/kg (× 5)) was > 88.0% and the “35 days survivals No./treated” value (P-388 leukemic cells; 30 mg/kg (× 5)) was 0/5. The “ILS (increase in life span)” value (P-388 leukemic cells; 30 mg/kg (× 5)) was 206.3% and the acute toxicity (mice; 150 mg/kg i.p. in mice) was “No acute toxicity was observed”.
With `CCCCCCCCCCCCCCCC(=O)OC[C@H](COP(=O)(O)OCC1=C[C@@H](n2cnc3c(N)ncnc32)[C@H](O)[C@@H]1O)OC(=O)CCCCCCCCCCCCCCC` [Example 2] the “35 days survivals No./treated” value ([1]; 10 mg/kg (× 7)) was 2/5, the “ILS (increase in life span)” value ([1]; 10 mg/kg (× 7)) was > 68.7% and the “35 days survivals No./treated” value (P-388 leukemic cells; 50 mg/kg (× 3)) was 1/5. The “ILS (increase in life span)” value (P-388 leukemic cells; 50 mg/kg (× 3)) was > 159.3% and the acute toxicity (mice; 250 mg/kg body weight) was “No acute toxicity was observed”.
With `CCCCC/C=C\C/C=C\CCCCCCCC(=O)OC[C@H](COP(=O)(O)OC[C@H]1O[C@@H](n2cc(F)c(=O)[nH]c2=O)[C@H](O)[C@@H]1O)OC(=O)CCCCCCC/C=C\C/C=C\CCCCC` [Example 3] the ILS at 15 mg/kg (P-388 leukemic cells; mouse P-388 leukemia, 15 kg/mg, 5 times administration) was 101%, the “35 days survivals No./treated” value (P-388 leukemic cells; 15 mg/kg (× 5)) was 0/5 and the “ILS (increase in life span)” value (P-388 leukemic cells; 15 mg/kg (× 5)) was 100.8%. The acute toxicity (mice; 75 mg/kg, mice) was “no acute toxicity”.
With `CCCCCCCCCCCCCCCC(=O)OC[C@H](COP(=O)(O)OC[C@H]1O[C@@H](n2cc(F)c(N)nc2=O)[C@@H](O)[C@@H]1O)OC(=O)CCCCCCCCCCCCCCC` [Example 13] the ILS ([1]; Ehrlich ascites carcinoma 2×10^6 cells i.p., 30 mg/kg once a day for 7 days from 2 days after inoculation) was “over 60%”, the ILS at 15 mg/kg (P-388 leukemic cells; Mus musculus, Table 2, P-388 leukemia, 15 mg/kg (× 5), control 7.57-7.64 days) was 152% and the acute toxicity (mice; 150 mg/kg body weight, mice) was “No acute toxicity”.
In the case of `CCCCCCCC/C=C\CCCCCCCC(=O)OC[C@H](COP(=O)(O)OC[C@H]1O[C@@H](n2ccc(N)nc2=O)[C@@H](O)[C@@H]1O)OC(=O)CCCCCCC/C=C\CCCCCCCC` [Example 14], the ILS ([1]; mice Ehrlich ascites carcinoma, dose not stated) is reported as 65.6%, the ILS at 30 mg/kg (P-388 leukemic cells; Mus musculus, Table 2, P-388 leukemia, 30 mg/kg (× 5), control 7.57-7.64 days) is reported as 154% and the “acute toxicity or mortality” value (mice; 150 mg/kg body weight, mice) is reported as “No acute toxicity or mortality”.
`CCCCCCCCCCCCCCCCCC(=O)OC[C@H](COP(=O)(O)OC[C@H]1O[C@@H](n2cc(F)c(=O)[nH]c2=O)[C@H](O)[C@@H]1O)OC(=O)CCCCCCCCCCCCCCCCC` [Example 16] gave an ILS at 30 mg/kg (P-388 leukemic cells; [3]) of 206%.
For `CCCCCCCCCCCCCCCCCC(=O)OC[C@H](COP(=O)(O)OCC1=C[C@@H](n2cnc3c(N)ncnc32)[C@H](O)[C@@H]1O)OC(=O)CCCCCCCCCCCCCCCCC` [Example 17], the ILS at 30 mg/kg (P-388 leukemic cells; [3]) was 128%.
With `CCCCCCCCCCCCCCCCCC(=O)OC[C@H](COP(=O)(O)OC[C@H]1O[C@@H](n2cc(F)c(N)nc2=O)[C@@H](O)[C@@H]1O)OC(=O)CCCCCCCCCCCCCCCCC` [Example 18] the ILS at 30 mg/kg (P-388 leukemic cells; [3]) was 194%.
`CCCCCCCCCCCCCCCCCC(=O)OC[C@H](COP(=O)(O)OC[C@H]1O[C@@H](n2ccc(N)nc2=O)[C@@H](O)[C@@H]1O)OC(=O)CCCCCCCCCCCCCCCCC` [Example 19] gave an ILS at 30 mg/kg (P-388 leukemic cells; [3]) of 160%.
In the case of `CCCCCCCCCCCCCCCCCC(=O)OC[C@H](COP(=O)(O)OC[C@H]1O[C@@H](n2cc(F)c(=O)[nH]c2=O)C[C@@H]1O)OC(=O)CCCCCCCCCCCCCCCCC` [Example 20], the ILS at 30 mg/kg (P-388 leukemic cells; [3]) is reported as 36%.
For `CCCCCCCCCCCCCCCC(=O)OC[C@H](COP(=O)(O)OC[C@H]1O[C@@H](n2cnc3c(N)ncnc32)[C@@H](O)[C@@H]1O)OC(=O)CCCCCCCCCCCCCCC` [dipalmitoyl phosphatidyl arabinosyladenine], the mortality (mice) was “no mortality was observed” and the antiviral activity [2] was “have antiviral activity”.
With `CCCCCCCCCCCCCCCC(=O)OC[C@H](COP(=O)(O)OC[C@H]1O[C@@H](n2cc(C)c(=O)[nH]c2=O)[C@@H](O)[C@@H]1O)OC(=O)CCCCCCCCCCCCCCC` [dipalmitoyl phosphatidyl arabinosylthymine] the mortality (mice) was “no mortality was observed” and the antiviral activity [2] was “have antiviral activity”.

— US4797479A, “Nucleoside-phospholipid conjugate” (Toyo Jozo Kabushiki Kaisha, priority 1985, dated 1989)
